Laboratory results as given in patent US20160151377A1, “USE OF SIGMA RECEPTOR LIGANDS FOR THE PREVENTION AND TREATMENT OF PAIN ASSOCIATED TO INTERSTITIAL CYSTITIS/BLADDER PAIN SYNDROME (IC/BPS)” (LABORATORIOS DEL DR. ESTEVE S.A., priority 2013, published 2016).

What was measured:
[1] = tested on: cyclophosphamide-induced cystitis; assay type: in vivo, mice
Method: (§1) Testing took place during the light phase (from 9.00 h to 15.00 h).

[2] = tested on: cyclophosphamide-induced cystitis; conditions: cyclophosphamide 300 mg/kg i.p., WT mice
Method: as §1

σ1 receptors = conditions: cited from earlier work; for affinity for σ1 receptors relative to haloperidol: rodent brain membranes and human neuroblastoma cells
D2 receptors = conditions: compared with haloperidol; cited from earlier work
sigma-1 receptors = conditions: both in experimental animals and human cells; cited from earlier work
sigma receptor = conditions: cited from earlier work

## O=P1(N(CCCl)CCCl)NCCCO1 (stereo not shown) [cyclophosphamide]
[1]; cyclophosphamide 100 mg/kg i.p., WT and σ1-KO mice
  mechanical threshold for referred hyperalgesia: maximum reduction in the mechanical threshold
[2]
  pain score (pain-related behaviors): maximum pain score

## OC1(c2ccc(Cl)cc2)CCNCC1 [metabolite I, 4-(4-chlorophenyl)-4-hydroxypiperidine]
σ1 receptors
  affinity for σ1 receptors relative to haloperidol: less affinity than haloperidol
D2 receptors
  affinity for D2 receptors: no affinity

## OC(CCCN1CCC(O)(c2ccc(Cl)cc2)CC1)c1ccc(F)cc1 (stereo not shown) [metabolite II, 4-(4-chlorophenyl)-[…]-(4-fluorophenyl)-4-hydroxy-1-piperidinebutanol]
σ1 receptors
  affinity for sigma-1 receptors: high affinity (in the low nanomolar range)
  affinity for σ1 receptors relative to haloperidol: less affinity than haloperidol
D2 receptors
  affinity for D2 receptors: much lower
sigma-1 receptors
  blockade of sigma-1 receptors: irreversible blockade

## CN1CC[C@]23c4c5ccc(O)c4O[C@H]2[C@@H](O)C=C[C@H]3[C@H]1C5.Cl [morphine, Morphine hydrochloride]
[1]; mouse, in vivo
  50% mechanical threshold, referred mechanical hyperalgesia: increase the mechanical threshold to above the control value

## CC(C)=CCN1CCC2(C)c3cc(O)ccc3CC1C2C (stereo not shown) [pentazocine]
Sigma receptor
  affinity of sigma receptors for analgesics: very high affinity
